Measurements as given in patent EP2589390B1, “PHARMACEUTICAL COMPOSITION FOR TREATING CENTRAL AND PERIPHERAL NERVOUS SYSTEM DISEASES OF VASCULAR, TRAUMATIC, TOXIC, HYPOXIC AND […]” (Aktsionernoe Obschestvo "Pharm-Sintez", priority 2010, dated 2012).

System: mice bone marrow polychromatophils
Settings: positive control
[1] = 20 mg/kg intraperitoneally in male mice

Source text: The Study purpose is to reveal and quantitatively assess the cytogenetic activity (mutagenicity) of the pharmacologic drugs in the mammalian bone marrow polychromatophils. The method's base is the micronuclei cells microscopic registration.
The experimental used the male and female F1(CBAx C57BI6/J) hybrid mice, two-month age, 18 to 20 grams body weight. Every group included 6 animals. The animals were kept under the 12-hour light regime, with freely available water and food. The single and five fold administration protein-polypeptide complex mutagenicity assessment animal experiments were in compliance with the official protocols. Three experimental series with relevant controls were performed: therapeutic dosage: males, single administration; subtoxic dose: males, single administration; and therapeutic dosage: males and females, five fold administration.
The protein-polypeptide complex mutagenicity assessment dose was defined on the basis of the maximum recommended daily therapeutic dose (TD) for human. The 2 ml at 0.1 mg/ml concentration IV administration is recommended. The therapeutic dose for human, including infant, may be 0.05 mg/kg/day. To calculate the mice experimental dose, the conversion factor is recommended to take into account the human and murine body surface area to body mass ratio. In our study it was 8.33.
For the subtoxic dose the maximum possible experimental one was used, 10 mg/kg, as the substance concentration was 0.1 mg/ml; the conventional total substance administered to mice is 0.1 ml per 10 g body weight.
Seven groups of animals, four experimental and three control ones, were formed. […]
The bone marrow cells preparation for the micronuclei account were made in conventional manner, in accordance with the "Micronuclear Test Environmental Factors Mutagenicity Assessment in Mammalia Organs Cells" Guidelines. […] 2000 polychromatophils per animal were then analyzed with coded preparations. At the 500 erythrocytes count the polychromatophil to normochromatic erythrocytes ratio was determined. […]

O=P1(N(CCCl)CCCl)NCCCO1 (stereo not drawn) [cyclophosphamide]
higher micronuclei cells vs. control [1]: 19.6 fold
micronuclei cells [1]: 62.1 ‰
polychromatophil to normochromatic erythrocytes ratio (20 mg/kg intraperitoneally, P < 0.005 vs control): shift to the latter ones
